Measured values taken from US11566212B2, “Integrated microfluidic system for culturing and testing” (priority 2016, dated 2023).
Read-outs that look alike come from different tables or passages of the source.

Assays:
[1] = not given; remark: listed apart in the source
[2] = Diffusion chips, silicone membrane soaked in isopropyl myristate
[3] = Franz cells, silicone membrane soaked in isopropyl myristate

## Cn1c(=O)c2c(ncn2C)n(C)c1=O [caffeine]
24 h
  Steady state flux: 13 μg/cm^2 h
[2]
  Dm (diffusion coefficient): 1.8 10^−3 cm^2/h
  tlag (lag time): 0.37 h
[1]; 24 h
  Steady state flux: 13 μg/cm^2 h
[1]; [3]
  Dm (diffusion coefficient): 1.3 10^−3 cm^2/h
  tlag (lag time): 0.52 h
